In ChEMBL document CHEMBL5390259, “Structure Determination of Kahalalide Analogues Based on Metagenomic Analysis of a Bryopsis sp. Marine Green Alga” (J Nat Prod, 2023):

Assay: Cytotoxicity against rat 3Y1 cells incubated for 2 days by MTT assay
Type: toxicity, cell-based

C/C=C1\NC(=O)[C@H](Cc2ccccc2)NC(=O)[C@@H]([C@@H](C)CC)NC(=O)[C@@H]([C@@H](C)CC)NC(=O)[C@H](NC(=O)[C@@H](CC(C)C)NC(=O)[C@H](CCCN)NC(=O)[C@H]2CCCN2C(=O)[C@H](NC(=O)[C@@H](NC(=O)[C@@H](NC(=O)[C@H](NC(=O)C=C(C)C)[C@@H](C)O)C(C)C)C(C)C)C(C)C)[C@@H](C)OC(=O)[C@H](C(C)C)NC1=O
IC50 at 2 days: 7.4 µM

C/C=C1\NC(=O)[C@H](Cc2ccccc2)NC(=O)[C@@H]([C@@H](C)CC)NC(=O)[C@@H]([C@@H](C)CC)NC(=O)[C@H](NC(=O)[C@@H](CC(C)C)NC(=O)[C@H](CCCN)NC(=O)[C@H]2CCCN2C(=O)[C@H](NC(=O)[C@@H](NC(=O)[C@@H](NC(=O)[C@H](NC(=O)CCC)[C@@H](C)O)C(C)C)C(C)C)C(C)C)[C@@H](C)OC(=O)[C@H](C(C)C)NC1=O
IC50 at 2 days: 10 µM
